Laboratory results: patent publication US9995734B2, “Human T cell line assay for evaluating the immunologic identity of glatiramer acetate preparations” (Mylan Inc., priority 2013, dated 2018)

Experiments:
Type in all cases: cell-based, human
[1] = tested on: Donor 3 GMA T-Cell Lines; assay: ATP proliferation assay (CellTiter Glo), Donor 3 GMA T-cell lines, incl. reactivity to non-canonical GA peptides
[2] = tested on: Donor 1 GMA Expanded T-Cell Lines (222-AG11, 222-AG12, 222-BA11, 222-BC11); assay: ATP proliferation assay (CellTiter Glo), Donor 1 GMA expanded T-cell lines, incl. reactivity to non-canonical GA peptides; details: 222-BA11, 222-BC11, 222-AG11, 222-AG12; Day 32; 0, 1, 10, 100 μg/mL
Protocol: Proliferation was evaluated by measuring ATP content using a luminescent method (CellTiter Glo Luminescent Cell Viability Assay, Promega, Madison, Wis., cat. #G7571) or by measuring BrdU uptake by ELISA (Millipore cat. #2752), in both cases following kit instructions. A split well format was used. Cells in each well were resuspended and 65 μl transferred to the wells of each of two new U-bottom 96-well plates, to generate the replicate plates. For the initial screening, the original 96-well plate received mitomycin-treated autologous PBMC as APC plus 10 μg/mL antigen (GA). A first replicate plate received 100 μl., mitomycin-treated PBMC alone (2×10^5), and no antigen, and a second replicate plate received 100 μL mitomycin-treated PBMC plus GA at a final concentration of 10 μg/mL. Therefore, all three plates received autologous APC (PBMC) treated with mitomycin C to prevent cell division. […] The latter two plates were incubated for 3 days at 37° C., 6% CO2 before adding CellTiter Glo or BrdU and measuring signal. IL-2 was added at 10 U/mL to the original 96-well plate for expansion on Day 17. For subsequent screenings, mitomycin-treated EBV-transformed autologous B-LCL (2×10^5 to 5×10^5 cells/mL) were used as APC.
On Day 24, cells from the wells corresponding to the eight presumptive GA-specific human T-cell lines listed in Table 4 were transferred to a 24-well plate and expanded by stimulating with 10 μg/mL GMA and mitomycin-treated autologous PBMC as APC (3×10^6 per well, i.e., 1.5×10^6/mL). On Day 32 four of the eight lines, 222-BA11, 222-BC11, 222-AG11, and 222-AG12, were stimulated with 0, 1, 10 and 100 μg/mL GMA and tested in a 96-well plate for a proliferative response to GMA using an ATP assay, again using autologous PBMC as APC (2×10^5 per well, i.e., 1×10^6/mL). […] FIGS. 2A and B show the results of the ATP proliferation assay carried out using 222-AG12, 222-BC11, 222-AG11, and 222-BA11 at Day 35 (control=no antigen). FIGS. 3A-C compare the results of ATP proliferation assays carried out after stimulation with varying concentrations of GMA or Copaxone as indicated, using cell lines 222-BA11, 222-BC11, and 222-AG12.
Donor 1 GMA T-cell line 222-AG12 was assayed for proliferation following stimulation with 0, 1, 10, and 30 μg/mL each of peptides GLT 631, GAT 631, GAT 111, LT 11, GT 11, GL 14, COP, and GMA, at a T-cell concentration of 2×10^5 cells/mL, in the presence of mitomycin C-treated autologous B-LCL. Line 222-AG12 was assayed after 3 rounds of restimulation (4 total stimulations). Proliferation was measured by luminescent ATP assay.

[3] = tested on: Donor 4 COP T-Cell Lines; assay: ATP proliferation assay (CellTiter Glo), Donor 4 COP T-cell lines, incl. reactivity to non-canonical GA peptides; details: for response to GMA in comparison to COP: 205-1F4, 10 μg/mL dose; for Mean, ATP proliferation assay: Cell Line 205-1F4; for Proliferation (luminescent ATP assay), Mean: T-cell line 205-1F4, autologous B-LCL; for Reactivity (proliferation), Mean: T-cell line 205-1H3, 0 μg/mL 4121.0

## glatiramer acetate [GMA]
[1]; T-cell line 165-E9G, 10 μg/mL, Day 40
  Mean, ATP proliferation assay: 24935
[1]; T-cell line 165-E9G, 30 μg/mL antigen, Day 50 of culturing, No Antigen Value 1742
  Proliferation (luminescent ATP assay), Mean: 39472 RLU
[1]; T-cell line 165-E9G, 10 μpg/mL antigen, Day 50 of culturing, No Antigen Value 1742
  Proliferation (luminescent ATP assay), Mean: 37352 RLU
[1]; T-cell line 165-F2G, 1 μg/mL, Day 40
  Mean, ATP proliferation assay: 1753
[1]; T-cell line 165-F2G, 3 μg/mL, Day 40
  Mean, ATP proliferation assay: 1422
[1]; T-cell line 165-F2G, 10 μg/mL, Day 40
  Mean, ATP proliferation assay: 1502
[1]; T-cell line 165-F5G, 1 μg/mL, Day 40
  Mean, ATP proliferation assay: 5669
[1]; T-cell line 165-F5G, 1.25 μg/mL antigen, autologous B-LCL
  Proliferation (luminescent ATP assay), Mean: 1071 RLU
[1]; T-cell line 165-F5G, 2.5 μg/mL antigen, autologous B-LCL
  Proliferation (luminescent ATP assay), Mean: 19012 RLU
[1]; T-cell line 165-F5G, 3 μg/mL, Day 40
  Mean, ATP proliferation assay: 14024
[1]; T-cell line 165-F5G, 5 μg/mL antigen, autologous B-LCL
  Proliferation (luminescent ATP assay), Mean: 45384 RLU
[1]; T-cell line 165-F5G, 10 μg/mL antigen, autologous B-LCL
  Proliferation (luminescent ATP assay), Mean: 48029 RLU
[1]; T-cell line 165-F5G, 10 μg/mL, Day 40
  Mean, ATP proliferation assay: 23774
[1]; T-cell line 165-F8G, 1 μg/mL, Day 40
  Mean, ATP proliferation assay: 4804
[1]; T-cell line 165-F8G, 3 μg/mL, Day 40
  Mean, ATP proliferation assay: 6841
[1]; T-cell line 165-F8G, 10 μg/mL, Day 40
  Mean, ATP proliferation assay: 11880
[1]; T-cell line 165-F10G, 1 μg/mL antigen, Day 50 of culturing, No Antigen Value 3752
  Proliferation (luminescent ATP assay), Mean: 4734 RLU
[1]; T-cell line 165-F10G, 1 μg/mL, Day 40
  Mean, ATP proliferation assay: 6015
[1]; T-cell line 165-F10G, 1.25 μg/mL antigen, autologous B-LCL
  Proliferation (luminescent ATP assay), Mean: 5731 RLU
[1]; T-cell line 165-F10G, 2.5 μg/mL antigen, autologous B-LCL
  Proliferation (luminescent ATP assay), Mean: 38905 RLU
[1]; T-cell line 165-F10G, 3 μg/mL antigen, Day 50 of culturing, No Antigen Value 3752
  Proliferation (luminescent ATP assay), Mean: 35371 RLU
[1]; T-cell line 165-F10G, 3 μg/mL, Day 40
  Mean, ATP proliferation assay: 17900
[1]; T-cell line 165-F10G, 5 μg/mL antigen, autologous B-LCL
  Proliferation (luminescent ATP assay), Mean: 66355 RLU
[1]; T-cell line 165-F10G, 10 μg/mL antigen, Day 50 of culturing, No Antigen Value 3752
  Proliferation (luminescent ATP assay), Mean: 58913 RLU
[1]; T-cell line 165-F10G, 10 μg/mL antigen, autologous B-LCL
  Proliferation (luminescent ATP assay), Mean: 57329 RLU
[1]; T-cell line 165-F10G, 10 μg/mL, Day 40
  Mean, ATP proliferation assay: 30198
[1]; T-cell line 165-F10G, 30 μg/mL antigen, Day 50 of culturing, No Antigen Value 3752
  Proliferation (luminescent ATP assay), Mean: 59173 RLU
[1]; T-cell line 165-H11G, 1 μg/mL antigen, Day 50 of culturing, No Antigen Value 1485
  Proliferation (luminescent ATP assay), Mean: 9569 RLU
[1]; T-cell line 165-H11G, 1 μg/mL, Day 40
  Mean, ATP proliferation assay: 10205
[1]; T-cell line 165-H11G, 1.25 μg/mL antigen, autologous B-LCL
  Proliferation (luminescent ATP assay), Mean: 8 RLU
[1]; T-cell line 165-H11G, 2.5 μg/mL antigen, autologous B-LCL
  Proliferation (luminescent ATP assay), Mean: 33793 RLU
[1]; T-cell line 165-H11G, 3 μg/mL antigen, Day 50 of culturing, No Antigen Value 1485
  Proliferation (luminescent ATP assay), Mean: 46539 RLU
[1]; T-cell line 165-H11G, 3 μg/mL, Day 40
  Mean, ATP proliferation assay: 27515
[1]; T-cell line 165-H11G, 5 μg/mL antigen, autologous B-LCL
  Proliferation (luminescent ATP assay), Mean: 70949 RLU
[1]; T-cell line 165-H11G, 10 μg/mL antigen, Day 50 of culturing, No Antigen Value 1485
  Proliferation (luminescent ATP assay), Mean: 49104 RLU
[1]; T-cell line 165-H11G, 10 μg/mL antigen, autologous B-LCL
  Proliferation (luminescent ATP assay), Mean: 72728 RLU
[1]; T-cell line 165-H11G, 10 μg/mL, Day 40
  Mean, ATP proliferation assay: 44067
[1]; T-cell line 165-H11G, 30 μg/mL antigen, Day 50 of culturing, No Antigen Value 1485
  Proliferation (luminescent ATP assay), Mean: 32179 RLU
[1]; all 8 Donor 3 GMA cell lines tested, Day 32, 10 μg/mL (Table 19)
  responsiveness in proliferation assay: responsive
[1]; eleven of the 12 cell lines (all but F2G), Day 40, 1, 3 or 10 μg/mL (Table 21)
  responsiveness in proliferation assay: responsive
[2]
  proliferative response relative to control, dose comparison: best proliferative response relative to control was observed in the cells stimulated with 10 μg/mL
[3]; Day 50 (Table 27)
  response to GMA in comparison to COP: 102.7%
[3]; Day 58 (Table 28)
  response to GMA in comparison to COP: 98.5%
[3]; Day 71
  response to GMA in comparison to COP: 101.3%
[3]; Day 50, 1 μg/mL
  Mean, ATP proliferation assay: 17341
[3]; Day 50, 3 μg/mL
  Mean, ATP proliferation assay: 195335
[3]; Day 50, 10 μg/mL
  Mean, ATP proliferation assay: 218954
[3]; Day 58, 3 μg/mL
  Mean, ATP proliferation assay: 29921
[3]; Day 58, 10 μg/mL
  Mean, ATP proliferation assay: 30998
[3]; Day 58, 30 μg/mL
  Mean, ATP proliferation assay: 33915
[3]; Day 58, 100 μg/mL
  Mean, ATP proliferation assay: 32698
[3]; Day 71, 1 μg/mL antigen
  Proliferation (luminescent ATP assay), Mean: 17341
[3]; Day 71, 3 μg/mL antigen
  Proliferation (luminescent ATP assay), Mean: 195335
[3]; Day 71, 10 μg/mL antigen
  Proliferation (luminescent ATP assay), Mean: 218954
[3]; Day 80, 1 μg/mL antigen
  Proliferation (luminescent ATP assay), Mean: 7,477
[3]; Day 80, 2 μg/mL antigen
  Proliferation (luminescent ATP assay), Mean: 64,999
[3]; Day 80, 5 μg/mL antigen
  Proliferation (luminescent ATP assay), Mean: 83,107
[3]; Day 80, 10 μg/mL antigen
  Proliferation (luminescent ATP assay), Mean: 67,482
[3]; 1 μg/mL antigen
  Reactivity (proliferation), Mean: 37654.3
[3]; 3 μg/mL antigen
  Reactivity (proliferation), Mean: 55284.3
[3]; 10 μg/mL antigen
  Reactivity (proliferation), Mean: 60841.7
